Assay [1] addresses T1, human 20S proteasome PGPH-L activity.
T1 construct: purchased Boston Biochem
The assay is described as follows: 20S proteasome PGPH-L activity inhibition assay (Z-Leu-Leu-Glu-AMC). It counts as biochemical. The procedure:
(§1) Purified human 20S proteasome and the fluorogenic substrates Suc-LLVY-AMC, Z-Leu-Leu-Glu-AMC, and Ac-Arg-Leu-Arg-AMC used to test the ChT-L, PGPH-L, and T-L activity, respectively, were purchased from Boston Biochem (Cambridge, MA, USA).
(§2) Proteasome activity assays were performed in vitro by mixing 20S proteasome (2 nM) with 100 μM of the proper fluorogenic peptide in the assay buffer (i.e., 25 mM HEPES, 0.5 mM EDTA, pH 7.6) in a 384 multiwell black plate. […] A minimum of three replicates were performed for each data point. Data are expressed as normalized percentages of residual activity considering the slope of the control (fluorogenic peptide/proteasome in the absence of inhibitors) as 100% of proteasome activity. Dose–response plots of the residual proteasome activity in the presence of increasing concentration of inhibitor provides a quantitative estimate of its potency. […] The estimation of the IC50 is based on a nonlinear fit with the equation:2 [drawing 2]
(§3) The IC50 values and their standard errors were deduced from the fitting. […] The resulting catalytic parameter are Km, corresponding to the apparent affinity constant (or Michaelis–Menten constant) of substrate for the free enzyme (to form the ES complex), and kcat, corresponding to the velocity of the rate-limiting step during the enzymatic activity. […] The mechanism of inhibition of the 20S proteasome ChT-L activity by the inhibitors was analyzed by modified double-reciprocal plot, as from the following equations for the different inhibitory mechanisms:4a [drawing 4]

Assay [2] concerns T2, human 20S proteasome ChT-L activity.
T2 construct: purchased Boston Biochem
As to the kind of experiment: Steady-state enzyme kinetics of ChT-L inhibition (Lineweaver-Burk plot). The class given is biochemical. The text has this: Analysis of enzyme kinetics may provide valuable insights in the understanding of inhibition mechanisms. To this aim, we have addressed the inhibition mechanism of the title compound H2T4 by determining the ChT-L activity of the CP at different concentrations of substrate and inhibitor. Since H2T4 inhibits all the three proteolytic functions of the CP with a similar potency, one can assume that the inhibition mechanism is similar for all enzymatic activities.
Fig. 6 Double reciprocal Lineweaver–Burk plot of substrate enzymatic 20S processing in the absence of inhibitor (○) and in the presence of 0.5 μM (×), 1 μM (+), 3 μM (*), 10 μM (⊗) and 20 μM inhibitor (⊕) for various concentrations of the substrate Suc-LLVY-AMC (from 6 to 100 μM).
The IC50 values and their standard errors were deduced from the fitting. Data relative to CP activities at different substrate/inhibitor concentrations have been analyzed by a double reciprocal Lineweaver–Burk plot, according to the following equation:3 [drawing 3] where [E0] is the enzyme concentration, ν is the observed velocity (expressed as moles of substrate cleaved per time interval unit) and [S] is the substrate concentration. […] The mechanism of inhibition of the 20S proteasome ChT-L activity by the inhibitors was analyzed by modified double-reciprocal plot, as from the following equations for the different inhibitory mechanisms:4a [drawing 4] […]

Assay [3] has the same test system. As to the kind of experiment: Pre-steady-state kinetics of ChT-L inhibition (time course of fluorescent product, Runge-Kutta simulation). The class given is biochemical. Conditions: 2 nM 20S, 100 μM Suc-LLVY-AMC; constrained to KI = k–I/k+I. The procedure: The kinetic parameters of H2T4 binding to the CP have also been determined as a function of time (as described in Experimental). Fig. 7 reports the time evolution of the fluorescent product obtained by mixing at t = 0 both the substrate (100 μM final concentration) and H2T4 at different concentrations, as reported in the figure legend; the fluorescent signal was transformed into molar concentrations of fluorescent product through a calibration curve resulting from the complete processing of known concentration of substrate. […]
The interaction of H2T4 with 20S proteasome has been also investigated from the pre-steady-state kinetic standpoint. Briefly, these assays were performed without incubation time, by direct addition of different concentrations of H2T4 in samples where the Ch-L activity was already being monitored. The extent and the rate of inhibition were determined by following the time-dependent fluorescent signal of the cleaved substrate for 25 additional minutes. Data have been analyzed according to a second-order Runge–Kutta simulation procedure based on a simple competitive inhibition mechanism, such as in Scheme 1.
The time evolution of each species reported in Scheme 1 was calculated at discrete time intervals dt. […]

Assay [4] deals with T3, human 20S proteasome T-L activity.
T3 construct: purchased Boston Biochem
As to the kind of experiment: 20S proteasome T-L activity inhibition assay (Ac-Arg-Leu-Arg-AMC). It counts as biochemical. The procedure:
as §1, §2, §3

The test system of the next assay is T4, 20S proteasome.
T4 construct: purchased Boston Biochem
The assay is described as follows: Stopped-flow UV spectroscopy of H2T4 binding to 20S proteasome. More on the design: species or system human. Conditions: 421 nm, 37 °C. The text has this:
In order to find a closer correlation between experimental observations and molecular modeling we have carried out a kinetic investigation of the interaction between H2T4 and 20S proteasome by stopped-flow. […] Data have been analyzed according to the following equation1 [drawing 1] where ΔODobs is the observed optical density change at a given time, r is the total number of exponentials during the reaction time course, ΔODi is the optical density change corresponding to the exponential i, ki is the rate constant associated to the exponential i, t is the time.
Fig. 11 Optical density changes at 421 nm for the mixing at 37 °C of 1 nM 20S proteasome with different concentrations of H2T4, namely 1 μM (curve a), 2 μM (curve b) and 5 μM (curve c). Continuous lines correspond to the non-linear least-squares fitting of data with two exponentials according to eqn (1), employing parameters reported in Table 1.
However, it is important to outline that kinetics reported in Fig. 11 are characterized by a multiphasic pattern with different patterns of concentration dependence of the rate constants. […] Therefore, on the basis of molecular modeling studies, these kinetic data can be accounted for by assuming that there is a first faster interaction with the N-terminal tails of the α subunits, characterized by k1, likely corresponding to the first encountering of the porphyrin with the α-subunits plane in a perpendicular geometry (Fig. 10A). […] The values ≈0 for the dissociation rate constants (Table 1) simply means that the rate is very slow and the interaction is very strong.

The target of assay [5] is T2, human 20S proteasome ChT-L activity. The assay is described as follows: 20S proteasome ChT-L activity inhibition assay (Suc-LLVY-AMC). It counts as biochemical. As for the experimental part: as §1, §2, §3
Where [6] appears, read: read-out: IC50 PGPH-L (Figure S1), figure inset, semi-log plot of residual CP activity.
The mark [7] stands for this setting: read-out: IC50 best-fit value, PGPH-L activity (Table S1), nonlinear fit of dose-response plot.
Setting [8] is: read-out: IC50 T-L (Figure S1), figure inset, semi-log plot of residual CP activity.
The mark [9] stands for this setting: read-out: IC50 best-fit value, T-L activity (Table S1), nonlinear fit of dose-response plot.
[10] abbreviates: read-out: IC50 ChT-L (Figure S1), figure inset, semi-log plot of residual CP activity.
[11] abbreviates: read-out: IC50 best-fit value, ChT-L activity (Table S1), nonlinear fit of dose-response plot.

Like-named read-outs stand apart in the source and are kept apart here.

As usually defined, the IC50 is the concentration at which inhibition is half-maximal. As usually defined, the Ki is a dissociation constant, usually derived from enzyme kinetics or from competition with a known ligand. In the case of `C[n+]1ccc(-c2c3nc(c(-c4cc[n+](C)cc4)c4ccc([nH]4)c(-c4cc[n+](C)cc4)c4nc(c(-c5cc[n+](C)cc5)c5ccc2[nH]5)C=C4)C=C3)cc1` [H2T4, meso-tetrakis(4-N-methylpyridyl)-porphyrin], the IC50 in assay [1] (setting [6]) was determined as 300 nM; in assay [1] (setting [7]), 301 nM; in assay [4] (setting [8]), 460 nM; in assay [4] (setting [9]), 466 nM; in assay [5] (setting [10]), 470 nM; in assay [5] (setting [11]), 469 nM. The inhibition mechanism entry in assay [2] (Lineweaver-Burk plot) is recorded as “competitive mechanism”. In addition, the inhibition constant Ki in assay [2] (read-out: inhibitor affinity constant KI, Suc-LLVY-AMC 6 to 100 μM, fit with eqn (4a)) amounted to 360 nM. For the same compound, the “k+I” value in assay [3] is 1.3 × 10^4 M^–1 s^–1. Moreover, the “k–I” value in assay [3] was 4.7 × 10^–3 s^–1. In the assay on 20S proteasome (1 nM 20S, 1-5 μM H2T4), the “off k1” value was “∼0 s^–1”. For the same compound, the “off k2” value in the assay with 20S proteasome (1 nM 20S, 1-5 μM H2T4) was “∼0 s^–1”. Besides, the “on k1” value in the assay on 20S proteasome (1 nM 20S, 1-5 μM H2T4) is given as 5.65 (±0.74) × 10^4 M^–1 s^–1. Besides, the “on k2” value in the assay on 20S proteasome (1 nM 20S, 1-5 μM H2T4) is 1.28 (±0.31) × 10^4 M^–1 s^–1. Also, the k3 in the assay with 20S proteasome (rate independent of porphyrin concentration) is reported as 3.23 (±0.81) × 10^–3 s^–1.
As to `C[n+]1cccc(-c2c3nc(c(-c4ccc[n+](C)c4)c4ccc([nH]4)c(-c4ccc[n+](C)c4)c4nc(c(-c5ccc[n+](C)c5)c5ccc2[nH]5)C=C4)C=C3)c1` [meta-H2T4, meso-tetra(3-N-metil-pyridyl) porphyrin], the concentration for half-maximal inhibition (IC50) in assay [1] (setting [6]) amounted to 210 nM; in assay [1] (setting [7]), 211 nM; in assay [4] (setting [8]), 1160 nM; in assay [4] (setting [9]), 1160 nM; in assay [5] (setting [10]), 930 nM; in assay [5] (setting [11]), 931 nM.

The record behind these values is PMC5975898, “Cationic porphyrins are tunable gatekeepers of the 20S proteasome” (Chemical Science, 2015).
